Usually inhibition stands for how much of the control response was suppressed.

This experiment relates to C. elegans. As to the kind of experiment: microbe, parasite or virus in culture. Conditions: Caenorhabditis elegans.
The mark [1] stands for this setting: 0 h, read-out: Percentage of motility inhibition 0 h, Table S2, C. elegans SS assay, 110 μM, 0 h, averages of 4 data points.
[2] abbreviates: 24 h, read-out: Percentage of motility inhibition 24 h, Table S2, C. elegans SS assay, 110 μM, 24 h, averages of 4 data points.
The mark [3] stands for this setting: 0 h, read-out: Percentage of motility inhibition 0 h.
The mark [4] stands for this setting: 24 h, read-out: Percentage of motility inhibition 24 h.

Like-named read-outs stand apart in the source and are kept apart here.

Turning to `CC(C)(C)NC(=O)[C@@H]1C[C@@H]2CCCC[C@@H]2CN1C[C@@H](O)[C@H](Cc1ccccc1)NC(=O)[C@H](CC(N)=O)NC(=O)c1ccc2ccccc2n1` [Saquinavir], the inhibition at 110 µM reads like this: under setting [1], 37%; under setting [2], 0%.
For the molecule `C[C@@H]1[C@H]2c3cc4c(cc3O[C@@]35OCOC3=CC(=O)[C@H](C[C@H]1C)[C@@H]25)OCO4` [Sauchinone], the inhibition at 110 µM reads like this: under setting [1], 18%; under setting [2], 25%.
For `C=C[C@](C)(O)CC[C@@H]1[C@@]2(C)CCCC(C)(C)[C@@H]2CC[C@@]1(C)O` [Sclareol], the inhibition at 110 µM reads like this: under setting [1], 28%; under setting [2], 10%.
For `O=c1cc(-c2ccc(O)cc2)oc2cc(O)c(O)c(O)c12` [Scutellarein], the inhibition at 110 µM was found to be 49% under setting [3] and 3% under setting [4].
On to `O=C(O)[C@H]1O[C@@H](Oc2cc3oc(-c4ccc(O)cc4)cc(=O)c3c(O)c2O)[C@H](O)[C@@H](O)[C@@H]1O` [Scutellarin], for which the inhibition at 110 µM runs as follows: under setting [1], 31%; under setting [2], 1%.
Take `Cc1ncc([N+](=O)[O-])n1CC(C)O` (stereo not drawn) [Secnidazole]: the inhibition at 110 µM is, setting by setting: under setting [3], 26%; under setting [4], 3%.
Turning to `C/C=C1/C[C@@H](C)[C@@](C)(O)C(=O)OCC2=CC[N+]3([O-])CC[C@@H](OC1=O)[C@@H]23` (stereo partly drawn) [Senecionine N‐oxide], the inhibition at 110 µM by setting is: under setting [1], 39%; under setting [2], 43%.
For the molecule `C/C=C1/C[C@@H](C)[C@@](C)(O)C(=O)OCC2=CCN3CC[C@@H](OC1=O)[C@@H]23` [Senecionine], the inhibition at 110 µM turned out to be 0% under setting [3] and 24% under setting [4].
As for `C=C1C/C(=C/C)C(=O)O[C@@H]2CCN3CC=C(COC(=O)[C@]1(C)O)[C@H]23` [Seneciphylline], the inhibition at 110 µM amounted to 0% under setting [1] and 1% under setting [2].
Turning to `COC(=O)C1=CO[C@@H](O[C@@H]2O[C@H](CO)[C@@H](O)[C@H](O)[C@H]2O)[C@H]2[C@@H]1[C@H](O)C[C@]2(C)O` [Shanzhiside methyl ester], the inhibition at 110 µM runs as follows: under setting [1], 32%; under setting [2], 38%.
In the same order, the values of `CCCCC/C=C/C(=O)CCc1ccc(O)c(OC)c1` [Shogaol] are 0% and 5%.
In the case of `COc1cc(C2Oc3cc([C@H]4Oc5cc(O)cc(O)c5C(=O)[C@@H]4O)ccc3OC2CO)ccc1O` (stereo partly drawn) [Silibinin], the inhibition at 110 µM reads like this: under setting [1], 0%; under setting [2], 0%.
Consider `COc1cc([C@H]2Oc3cc([C@H]4Oc5cc(O)cc(O)c5C(=O)[C@@H]4O)ccc3O[C@@H]2CO)ccc1O` [Silybin A], for which the inhibition at 110 µM is 22% under setting [1] and 20% under setting [2].
On the same counts, the results for `COc1cc([C@@H]2[C@H]3CO[C@@]4(O)C(=O)[C@@H]2C=C([C@H]2Oc5cc(O)cc(O)c5C(=O)[C@@H]2O)[C@@H]34)ccc1O` [Silydianin] are 17% and 4%.
`COc1ccc2c(O[C@@H]3C[C@H]4C(=O)N[C@]5(C(=O)NS(=O)(=O)C6CC6)C[C@H]5/C=C\CCCCN(C)C(=O)[C@@H]4C3)cc(-c3nc(C(C)C)cs3)nc2c1C` [Simeprevir]: the inhibition at 110 µM amounted to 2% under setting [1] and 25% under setting [2].
On to `COc1ccc(-c2cc(=O)c3c(OC)c(OC)c(OC)cc3o2)cc1OC` [Sinensetin], for which the inhibition at 110 µM reads like this: under setting [1], 0%; under setting [2], 0%.
Take `COc1ccc2c(OC)c3ccoc3nc2c1OC` [Skimmianine]: the inhibition at 110 µM under setting [1] was 0% and the inhibition at 110 µM under setting [2] worked out at 15%.
`COc1cccc(O)c1-c1cc(=O)c2c(O)c(OC)c(OC)c(OC)c2o1` [Skullcapflavone II]: the inhibition at 110 µM under setting [3] was found to be 4% and the inhibition at 110 µM under setting [4] amounted to 6%.

The values above are taken from paper PMC11855827, “High-Throughput Screening of Five Compound Libraries for Anthelmintic Activity and Toxicity Leads to the Discovery of Two Flavonoid Compounds” (International Journal of Molecular Sciences, 2025).
